Common to all, as to format: biochemical
The target in one test is Lyn (h) (Homo sapiens, UniProt P07948). Description: Kinase profiling, glass-fiber filter technology: Lyn. The following applies: test concentration of 10^−6 M; read-out: Lyn inhibition score. The protocol: (§1) The in vitro inhibition of a panel of kinases was assessed using the glass-fiber filter technology as described by Davies, S. P. et al., Biochem J. (2000), 351; p. 95-105.
(§2) In the glass-fiber filter technology the activity of the kinase of interest is measured using an appropriate substrate that is incubated with the aforementioned kinase protein in the presence of (^33P) radiolabeled ATP. (^33P) Phosporylation of the substrate is subsequently measured as radioactivity bound on a glassfiber-filter.
(§3) All kinases are pre-diluted to a 10× working concentration prior to addition into the assay. The composition of the dilution buffer for each kinase is detailed below.
(§4) All substrates are dissolved and diluted to working stocks in de-ionised water.
(§5) In a final reaction volume of 25 μl, Lyn (h) (5-10 mU) is incubated with 50 mM Tris pH 7.5, 0.1 mM EGTA, 0.1 mM Na3VO4, 0.1% β-mercaptoethanol, 0.1 mg/ml poly(Glu, Tyr) 4:1, 10 mM MgAcetate and [γ-^33P-ATP] (specific activity approx. 500 cpm/pmol, concentration as required). The reaction is initiated by the addition of the MgATP mix. After incubation for 40 minutes at room temperature, the reaction is stopped by the addition of 5 μl of a 3% phosphoric acid solution. 10 μl of the reaction is then spotted onto a Filtermat A and washed three times for 5 minutes in 75 mM phosphoric acid and once in methanol prior to drying and scintillation counting.

For another test, the target named is Flt1 human (Homo sapiens, UniProt P17948). Description: Kinase profiling, glass-fiber filter technology: Flt1. The following applies: test concentration of 10^−6 M; read-out: Flt1 inhibition score. How it is done: as §1, §2, §3, §4
Sequence of Flt1 human (P17948 27-1338): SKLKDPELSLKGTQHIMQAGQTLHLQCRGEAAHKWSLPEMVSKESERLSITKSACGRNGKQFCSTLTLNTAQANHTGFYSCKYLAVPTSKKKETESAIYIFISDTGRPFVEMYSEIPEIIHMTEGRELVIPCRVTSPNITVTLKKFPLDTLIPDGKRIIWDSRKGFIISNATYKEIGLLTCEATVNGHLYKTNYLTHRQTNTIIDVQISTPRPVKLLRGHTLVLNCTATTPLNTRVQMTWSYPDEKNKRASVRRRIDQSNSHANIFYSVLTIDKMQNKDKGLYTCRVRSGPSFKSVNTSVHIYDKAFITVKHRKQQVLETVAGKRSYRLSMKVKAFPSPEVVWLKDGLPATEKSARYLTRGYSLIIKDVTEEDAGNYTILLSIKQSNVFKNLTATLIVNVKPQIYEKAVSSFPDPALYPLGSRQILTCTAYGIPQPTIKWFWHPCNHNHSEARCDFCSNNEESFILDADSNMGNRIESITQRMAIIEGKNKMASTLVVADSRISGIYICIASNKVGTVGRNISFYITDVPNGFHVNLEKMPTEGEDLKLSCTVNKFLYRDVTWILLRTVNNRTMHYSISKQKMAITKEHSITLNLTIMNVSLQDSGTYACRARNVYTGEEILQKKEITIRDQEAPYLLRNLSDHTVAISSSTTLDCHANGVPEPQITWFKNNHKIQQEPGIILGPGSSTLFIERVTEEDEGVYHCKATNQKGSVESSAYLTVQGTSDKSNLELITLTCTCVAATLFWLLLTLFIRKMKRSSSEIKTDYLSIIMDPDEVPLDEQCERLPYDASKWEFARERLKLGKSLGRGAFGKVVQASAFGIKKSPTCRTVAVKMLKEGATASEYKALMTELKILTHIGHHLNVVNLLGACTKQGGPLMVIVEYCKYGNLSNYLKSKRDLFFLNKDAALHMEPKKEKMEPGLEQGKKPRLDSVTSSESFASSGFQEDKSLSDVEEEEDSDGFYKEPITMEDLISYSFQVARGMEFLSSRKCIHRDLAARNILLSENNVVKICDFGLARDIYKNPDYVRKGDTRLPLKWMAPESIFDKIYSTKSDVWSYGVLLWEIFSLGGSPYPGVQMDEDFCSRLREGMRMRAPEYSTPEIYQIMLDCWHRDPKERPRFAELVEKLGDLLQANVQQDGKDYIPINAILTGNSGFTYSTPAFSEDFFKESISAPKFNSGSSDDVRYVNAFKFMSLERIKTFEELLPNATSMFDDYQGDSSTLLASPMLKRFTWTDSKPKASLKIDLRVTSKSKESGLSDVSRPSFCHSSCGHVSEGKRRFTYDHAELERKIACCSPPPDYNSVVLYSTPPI
as §5, with “μl, Flt1 human” for “μl, Lyn (h)”, “with 8” for “with 50”, “mM MOPS” for “mM Tris”, “pH 7.0, 0.2” for “pH 7.5, 0.1”, “mM EDTA, 250 μM KKKSPGEYVNIEFG,” for “mM EGTA, 0.1 mM Na3VO4, 0.1% β-mercaptoethanol, 0.1 mg/ml poly(Glu, Tyr) 4:1,”, “a P30 filtermat” for “a Filtermat A”

In a further test the target is Lck (h) (Homo sapiens, UniProt P06239). Description: Kinase profiling, glass-fiber filter technology: Lck. The conditions noted are these: test concentration of 10^−6 M; read-out: Lck inhibition score. How it is done:
as §1, §2, §3, §4
In a final reaction volume of 25 μl, Lck (h) (5-10 mU) is incubated with 50 mM Tris pH 7.5, 0.1 mM EGTA, 0.1 mM Na3VO4, 250 μM KVEKIGEGTYGVVYK (Cdc2 peptide), 10 mM MgAcetate and [γ-^33P-ATP] (specific activity approx. 500 cpm/pmol, concentration as required). The reaction is initiated by the addition of the MgATP mix. After incubation for 40 minutes at room temperature, the reaction is stopped by the addition of 5 μl of a 3% phosphoric acid solution.
10 μl of the reaction is then spotted onto a P30 filtermat and washed three times for 5 minutes in 75 mM phosphoric acid and once in methanol prior to drying and scintillation counting.

A further test has as its target Ret human (Homo sapiens, UniProt P07949). Description: Kinase profiling, glass-fiber filter technology: Ret. The following applies: test concentration of 10^−6 M; read-out: Ret inhibition score. The protocol: as §1, §2, §3, §4
as §5, with “μl, Ret human” for “μl, Lyn (h)”, “with 8” for “with 50”, “mM MOPS” for “mM Tris”, “pH 7.0, 0.2” for “pH 7.5, 0.1”, “mM EDTA, 250 μM KKKSPGEYVNIEFG,” for “mM EGTA, 0.1 mM Na3VO4, 0.1% β-mercaptoethanol, 0.1 mg/ml poly(Glu, Tyr) 4:1,”, “a P30 filtermat” for “a Filtermat A”

The target of another test is ErbB4 (h) (Homo sapiens, UniProt Q15303). Description: Kinase profiling, glass-fiber filter technology: ErbB4. The conditions noted are these: test concentration of 10^−6 M; read-out: ErbB4 inhibition score. The protocol:
as §1, §2, §3, §4
(§6) In a final reaction volume of 25 μl, ErbB4 (h) (5-10 mU) is incubated with 8 mM MOPS pH 7.0, 0.2 mM EDTA, 10 mM MnCl2, 0.1 mg/ml poly(Glu, Tyr) 4:1, 10 mM MgAcetate and [γ-33P-ATP] (specific activity approx. 500 cpm/pmol, concentration as required). The reaction is initiated by the addition of the MgATP mix. After incubation for 40 minutes at room temperature, the reaction is stopped by the addition of 5 μl of a 3% phosphoric acid solution. 10 μl of the reaction is then spotted onto a Filtermat A and washed three times for 5 minutes in 75 mM phosphoric acid and once in methanol prior to drying and scintillation counting.

The target of another test is Blk (m) (Mus musculus, UniProt P16277). Description: Kinase profiling, glass-fiber filter technology: Blk. The conditions noted are these: test concentration of 10^−6 M; read-out: Blkl inhibition score. How it is done: as §1, §2, §3, §4
Sequence of Blk (m) (P16277 whole entry): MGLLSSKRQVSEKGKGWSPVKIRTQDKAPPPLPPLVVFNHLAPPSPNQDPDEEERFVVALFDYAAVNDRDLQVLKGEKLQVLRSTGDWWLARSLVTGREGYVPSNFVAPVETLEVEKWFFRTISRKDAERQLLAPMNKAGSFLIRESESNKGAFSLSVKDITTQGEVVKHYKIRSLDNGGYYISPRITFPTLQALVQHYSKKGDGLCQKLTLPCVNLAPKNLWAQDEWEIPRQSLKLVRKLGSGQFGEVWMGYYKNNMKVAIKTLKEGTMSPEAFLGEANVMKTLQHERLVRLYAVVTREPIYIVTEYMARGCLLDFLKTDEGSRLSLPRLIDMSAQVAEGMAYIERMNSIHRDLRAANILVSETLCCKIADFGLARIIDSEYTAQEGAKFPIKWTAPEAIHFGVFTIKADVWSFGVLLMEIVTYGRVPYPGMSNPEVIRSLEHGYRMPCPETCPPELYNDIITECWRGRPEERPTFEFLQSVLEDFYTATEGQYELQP
as §5, with “Blk (m)” for “Lyn (h)”, “[γ-33P-ATP]” for “[γ-^33P-ATP]”

The target in the next test is Fgr human (Homo sapiens, UniProt P09769). Nature of the test: Kinase profiling, glass-fiber filter technology: Fgr. The conditions noted are these: test concentration of 10^−6 M; read-out: Fgr inhibition score. The protocol: as §1, §2, §3, §4
Sequence of Fgr human (P09769 whole entry): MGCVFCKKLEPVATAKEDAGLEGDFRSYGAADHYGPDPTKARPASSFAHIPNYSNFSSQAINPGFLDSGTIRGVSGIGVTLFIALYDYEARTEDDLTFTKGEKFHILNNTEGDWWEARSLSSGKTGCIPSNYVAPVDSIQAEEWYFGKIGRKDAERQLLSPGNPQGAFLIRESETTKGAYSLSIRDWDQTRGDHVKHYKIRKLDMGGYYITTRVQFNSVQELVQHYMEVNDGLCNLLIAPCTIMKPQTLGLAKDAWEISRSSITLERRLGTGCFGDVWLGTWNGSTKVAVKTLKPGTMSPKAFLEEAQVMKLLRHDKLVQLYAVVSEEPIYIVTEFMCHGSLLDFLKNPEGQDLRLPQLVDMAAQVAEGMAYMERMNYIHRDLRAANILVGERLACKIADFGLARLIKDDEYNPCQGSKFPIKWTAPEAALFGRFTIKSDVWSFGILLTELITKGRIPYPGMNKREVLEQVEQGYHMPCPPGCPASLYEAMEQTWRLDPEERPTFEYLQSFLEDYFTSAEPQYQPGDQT
as §6, with “Fgr human” for “ErbB4 (h)”, “EDTA,” for “EDTA, 10 mM MnCl2,”, “[γ-^33P-ATP]” for “[γ-33P-ATP]”

Sequence of Lyn (h) (P07948 whole entry): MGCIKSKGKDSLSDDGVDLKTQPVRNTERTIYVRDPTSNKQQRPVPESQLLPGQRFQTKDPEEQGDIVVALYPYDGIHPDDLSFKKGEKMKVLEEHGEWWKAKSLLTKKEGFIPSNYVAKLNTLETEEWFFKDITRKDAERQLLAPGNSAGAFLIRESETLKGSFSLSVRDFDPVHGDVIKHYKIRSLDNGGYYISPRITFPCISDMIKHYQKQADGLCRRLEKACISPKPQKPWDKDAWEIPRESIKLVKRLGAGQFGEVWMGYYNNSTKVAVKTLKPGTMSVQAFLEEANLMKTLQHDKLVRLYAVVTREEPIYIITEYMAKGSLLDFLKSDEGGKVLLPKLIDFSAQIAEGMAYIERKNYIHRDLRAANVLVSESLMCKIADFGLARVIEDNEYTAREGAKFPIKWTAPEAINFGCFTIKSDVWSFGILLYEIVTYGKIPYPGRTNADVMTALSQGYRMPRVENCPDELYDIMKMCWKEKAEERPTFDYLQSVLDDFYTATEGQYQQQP
Sequence of Lck (h) (P06239 whole entry): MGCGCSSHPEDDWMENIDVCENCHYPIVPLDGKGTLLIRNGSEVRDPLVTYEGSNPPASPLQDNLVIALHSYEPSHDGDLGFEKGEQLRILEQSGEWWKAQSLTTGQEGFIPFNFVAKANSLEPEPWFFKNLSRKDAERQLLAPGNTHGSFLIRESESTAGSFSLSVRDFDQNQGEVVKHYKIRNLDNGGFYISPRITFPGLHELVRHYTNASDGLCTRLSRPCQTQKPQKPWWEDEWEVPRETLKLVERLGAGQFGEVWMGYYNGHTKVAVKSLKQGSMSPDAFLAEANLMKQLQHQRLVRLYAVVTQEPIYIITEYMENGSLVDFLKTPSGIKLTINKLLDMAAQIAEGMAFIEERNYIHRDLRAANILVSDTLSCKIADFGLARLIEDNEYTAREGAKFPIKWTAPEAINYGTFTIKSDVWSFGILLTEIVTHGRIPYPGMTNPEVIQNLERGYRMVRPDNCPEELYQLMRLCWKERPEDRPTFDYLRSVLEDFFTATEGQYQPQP
Sequence of Ret human (P07949 29-1114): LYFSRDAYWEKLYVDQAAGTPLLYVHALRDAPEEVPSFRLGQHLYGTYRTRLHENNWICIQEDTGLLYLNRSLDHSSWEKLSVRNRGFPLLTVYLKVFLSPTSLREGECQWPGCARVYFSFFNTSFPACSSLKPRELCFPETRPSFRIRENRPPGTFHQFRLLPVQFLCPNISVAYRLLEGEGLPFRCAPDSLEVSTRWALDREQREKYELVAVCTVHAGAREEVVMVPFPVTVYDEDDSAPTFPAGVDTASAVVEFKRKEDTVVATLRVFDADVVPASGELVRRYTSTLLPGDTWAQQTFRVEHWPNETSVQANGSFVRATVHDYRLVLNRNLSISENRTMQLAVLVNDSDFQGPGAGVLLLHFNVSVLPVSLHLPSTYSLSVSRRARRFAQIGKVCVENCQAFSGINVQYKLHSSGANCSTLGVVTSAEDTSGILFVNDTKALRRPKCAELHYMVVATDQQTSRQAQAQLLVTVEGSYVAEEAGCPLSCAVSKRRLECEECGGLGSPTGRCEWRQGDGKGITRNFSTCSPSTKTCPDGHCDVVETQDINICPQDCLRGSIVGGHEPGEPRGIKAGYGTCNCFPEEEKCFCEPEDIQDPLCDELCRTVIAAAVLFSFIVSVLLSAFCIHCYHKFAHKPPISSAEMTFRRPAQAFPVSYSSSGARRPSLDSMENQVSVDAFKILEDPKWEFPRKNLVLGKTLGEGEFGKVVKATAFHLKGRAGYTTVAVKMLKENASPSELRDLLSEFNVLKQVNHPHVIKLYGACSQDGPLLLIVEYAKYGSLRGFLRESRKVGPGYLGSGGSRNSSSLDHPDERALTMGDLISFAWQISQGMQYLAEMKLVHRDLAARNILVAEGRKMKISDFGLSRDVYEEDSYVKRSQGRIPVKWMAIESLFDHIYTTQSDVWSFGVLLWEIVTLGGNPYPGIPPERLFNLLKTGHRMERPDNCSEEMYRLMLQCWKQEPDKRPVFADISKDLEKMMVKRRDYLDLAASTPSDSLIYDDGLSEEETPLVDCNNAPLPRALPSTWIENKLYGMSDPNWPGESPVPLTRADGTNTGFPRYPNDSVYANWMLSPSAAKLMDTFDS

As usually defined, the inhibition is the relative decrease from the control value, in per cent. Turning to `CN1CCCCCOc2cc3c(ncnc3cc2OCCCNCCS(C)(=O)=O)Nc2cc(Br)ccc2C1` [Compound 14], the inhibition at 1 µM on Lyn (h), on Flt1 human, at Lck (h), on Ret human, at ErbB4 (h) and on Blk (m) was more than 80% throughout. In addition, at Fgr human, the inhibition at 1 µM fell in the range of 60 to 80%.

The values are drawn from patent US9688691B2, “Macrocyclic quinazole derivatives and their use as MTKI” (Janssen Pharmaceutica NV, priority 2004, dated 2017).
